Data reported in ChEMBL document CHEMBL2074126, “A functional assay for quantitation of the apparent affinities of ligands of P-glycoprotein in Caco-2 cells” (Pharm Res, 2001).

Tests used:
[1] = target: T1, ATP-dependent translocase ABCB1 (Homo sapiens, UniProt P08183); assay: TP_TRANSPORTER: inhibition of Taxol transepithelial transport (basal to apical) (Taxol: 0.8 uM, Probenecid: 1000 u) in Caco-2 cells; type: functional, cell-based
[2] = target: T1, ATP-dependent translocase ABCB1; assay: TP_TRANSPORTER: inhibition of Taxol transepithelial transport (basal to apical) in Caco-2 cells; type: functional, cell-based

T1 sequence (P08183 whole entry): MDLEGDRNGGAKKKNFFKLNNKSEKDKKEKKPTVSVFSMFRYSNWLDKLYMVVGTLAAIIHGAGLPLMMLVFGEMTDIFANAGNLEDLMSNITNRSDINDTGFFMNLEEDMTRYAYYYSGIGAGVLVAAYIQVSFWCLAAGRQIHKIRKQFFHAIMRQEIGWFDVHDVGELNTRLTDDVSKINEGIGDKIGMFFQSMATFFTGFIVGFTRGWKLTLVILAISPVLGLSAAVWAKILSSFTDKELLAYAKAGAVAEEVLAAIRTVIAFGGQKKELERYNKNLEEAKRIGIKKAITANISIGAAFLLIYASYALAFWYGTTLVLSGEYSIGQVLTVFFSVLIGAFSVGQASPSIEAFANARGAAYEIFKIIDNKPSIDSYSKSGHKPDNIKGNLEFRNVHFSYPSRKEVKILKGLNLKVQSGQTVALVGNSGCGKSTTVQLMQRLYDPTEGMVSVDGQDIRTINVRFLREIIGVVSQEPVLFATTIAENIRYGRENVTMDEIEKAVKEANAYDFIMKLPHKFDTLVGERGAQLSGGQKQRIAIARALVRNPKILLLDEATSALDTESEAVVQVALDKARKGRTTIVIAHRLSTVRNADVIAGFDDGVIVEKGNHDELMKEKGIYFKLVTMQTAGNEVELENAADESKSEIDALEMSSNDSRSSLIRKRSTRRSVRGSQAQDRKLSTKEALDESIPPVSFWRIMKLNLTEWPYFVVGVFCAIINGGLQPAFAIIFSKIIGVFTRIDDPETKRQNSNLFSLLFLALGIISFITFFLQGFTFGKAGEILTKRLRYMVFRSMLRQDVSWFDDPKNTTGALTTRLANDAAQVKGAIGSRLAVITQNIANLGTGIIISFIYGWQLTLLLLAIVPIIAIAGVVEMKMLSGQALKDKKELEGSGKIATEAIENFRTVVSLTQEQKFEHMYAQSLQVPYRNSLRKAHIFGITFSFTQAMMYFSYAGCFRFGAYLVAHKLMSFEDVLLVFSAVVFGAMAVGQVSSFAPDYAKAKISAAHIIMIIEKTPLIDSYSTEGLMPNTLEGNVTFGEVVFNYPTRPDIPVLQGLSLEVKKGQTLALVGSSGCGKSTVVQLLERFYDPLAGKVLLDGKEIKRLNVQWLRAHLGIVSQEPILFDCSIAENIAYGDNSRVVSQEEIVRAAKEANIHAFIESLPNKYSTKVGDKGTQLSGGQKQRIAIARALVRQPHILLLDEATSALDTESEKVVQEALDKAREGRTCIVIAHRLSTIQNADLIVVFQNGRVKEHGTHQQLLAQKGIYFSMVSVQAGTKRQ

| SMILES | Activity [1] | Ki [2] [µM] |
| --- | --- | --- |
| CCCN(CCC)S(=O)(=O)c1ccc(C(=O)O)cc1 [PROBENECID] | is not an inhibitor [-] |  |
| COc1cccc2c1C(=O)c1c(O)c3c(c(O)c1C2=O)C[C@@](O)(C(C)=O)C[C@@H]3O[C@H]1C[C@H](N)[C@H](O)[C@H](C)O1 [DAUNORUBICIN] |  | 2.5 |
| COc1cccc2c1C(=O)c1c(O)c3c(c(O)c1C2=O)C[C@@](O)(C(=O)CO)C[C@@H]3O[C@H]1C[C@H](N)[C@H](O)[C@H](C)O1 [DOXORUBICIN] |  | 8.5 |
| CCN(CC)C(=O)Nc1ccc(OCC(O)CNC(C)(C)C)c(C(C)=O)c1 (centres undefined) [CELIPROLOL] |  | 313 |
